Experimental data as given in patent US20130171158A1, “TREATMENT OF ABNORMALITIES OF GLUCOSE METABOLISM WITH AN ANTAGONIST OF INHIBITOR OF DIFFERENTIATION 1” (GARVAN INSTITUTE OF MEDICAL RESEARCH, priority 2010, published 2013).

System: MIN6 cells
Experiment: Insulin secretion assay in MIN6 cells treated with palmitate with or without Cannabidiol
Format: cell-based, mouse
Conditions: 10 μM Cannabidiol, 0.4 mM palmitate coupled to 0.92% BSA for 48 h; 2.8 or 25 mM glucose for 1 h
Description: FIG. 11 is a graphical represenatation showing that an inhibitor of Id1 expression (Cannabidiol) protects MIN6 beta cells against lipid (palmitate)-induced insulin secretory dysfunction. Cells were treated with either 0.92% BSA or 0.92% BSA coupled to 0.4 mM palmitate for 48 h, in combination with the absence or presence of 10 μM Cannabidiol. Insulin secretion assay was performed. After 30-min preincubation in KRB medium containing 2.8 mM glucose, the cells were incubated in KRB medium containing either 2.8 mM glucose (clear bars) or 25 mM glucose (dark bars) for 1 h. Medium was taken to determine levels of insulin secretion. Insulin secretion expressed as fold change compared with Control cells incubated with 25 mM glucose. Results are means±SE. The MIN6 cell line was also used to examine the effects of inhibition of Id1 on lipid-induced insulin secretory dysfunction. MIN6 cells were grown in DMEM. Cells were seeded at 2×10^5 cells per well in 24-well plates. Cells were treated with either 0.92% BSA or 0.92% BSA coupled to 0.4 mM palmitate for 48 h, in combination with the absence or presence of 10 μM Cannabidiol. After chronic incubation, cells were washed in KRB buffer containing 2.8 mM glucose, and then they were preincubated for a further 30 min in 0.5 ml of the same medium at 37° C. […]

## C=C(C)[C@@H]1CCC(C)=C[C@H]1c1c(O)cc(CCCCC)cc1O [Cannabidiol]
  protection against palmitate-induced insulin secretory dysfunction: protected the cells against palmitate-induced insulin secretory dysfunction
